Measurements as given in US4668669A, “Pristinamycin IIB derivatives and compositions containing them” (Rhone-Poulenc Sante, priority 1985, dated 1987).
Starred links: 1 amine or outer side, 2 acyl side, 3 side chain; linkers in the order of their positions; H or OH if unused. Positions of bridges follow the written chain, without caps; N, C: chain ends. Non-standard residues stand in square brackets, D forms with d. Residues, ends and D or L forms follow the SMILES beside them. ξ: configuration not given here. *: point of attachment. X6 = CC(CN1CCN(C)CC1)SC=C1CN([*:1])C(C(=O)[*:2])CC1=O; X4 = CN(C)CC(CN(C)C)SCC1CN([*:1])C(C(=O)[*:2])CC1=O; X5 = CN1CCN(CCCSCC2CN([*:1])C(C(=O)[*:2])CC2=O)CC1; X2 = CN1CCC(SCC2CN([*:1])C(C(=O)[*:2])CC2=O)CC1; ξNMePhe(4-NMe2) = CNC(Cc1ccc(N(C)C)cc1)C(=O)O; X1 = CN(C)CCOC=C1CN([*:1])C(C(=O)[*:2])CC1=O; X3 = CN(C)CCNC=C1CN([*:1])C(C(=O)[*:2])CC1=O; X7 = CN(C)CCCSCC1CN([*:1])C(C(=O)[*:2])CC1=O; Picolinoyl(3-OH) = O=C(c1ncccc1O)*; NMeF = CN[CH](Cc1ccccc1)C(=O)O; Phg = N[CH](C(=O)O)c1ccccc1; Abu = CC[CH](N)C(=O)O

experiment: Solubility in water (aqueous solution obtained); assay type: physicochemical; settings: distilled water, no hydrochloride stated

| Molecule | Solubility: concentration of aqueous solution [%] |
| --- | --- |
| 5γ-[N-(carboxymethyl)methylamino]-5γ-deoxypristinamycin IA [product K] | 2 |
| CCC1NC(=O)C(NC(=O)c2ncccc2O)C(C)OC(=O)C(c2ccccc2)NC(=O)C2CC(=O)C(=CNCCN(C)C)CN2C(=O)C(Cc2ccc(N(C)C)cc2)N(C)C(=O)C2CCCN2C1=O (centres unmarked) [product AG, 5δ-(2-dimethylaminoethyl)aminomethylenepristinamycin IA] ({Picolinoyl(3-OH)}-T[Abu]P[ξNMePhe(4-NMe2)][X3][Phg]; ester 1-C; configuration not given here) | 1 |

experiment: Solubility in water (aqueous solution obtained); assay type: physicochemical; settings: hydrochloride / dissolved with aqueous hydrochloric acid and distilled water
From the text: In the examples described below, unless stated otherwise, all the products can be dissolved at a strength of at least 2%, in the form of hydrochloride.

| Molecule | Solubility: concentration of aqueous solution, in the form of hydrochloride [%] |
| --- | --- |
| 5γ-Deoxy-5γ-(2-dimethylaminoethyl)aminopristinamycin IA [compound 2] | 10 |
| 5γ-deoxy-5γ-(4-diethylamino-2-methylbutyl)aminopristinamycin IA [product F] | 10 |
| 5γ-deoxy-5γ-[N-(2-dimethylaminoethyl)-N-methylamino]pristinamy cin IA [product D] | 10 |
| 5γ-deoxy-5γ-[N-(2-dimethylaminoethyl)acetamido]pristinamycin IA [product L] | 10 |
| 5γ-deoxy-5γ-[N-(3-dimethylaminopropyl)acetamido]pristinamycin IA [product M] | 10 |
| 5γ-deoxy-5γ-dimethylaminopristinamycin IA [product B] | 2 |
| 5γ-deoxy-5γ-methylaminopristinamycin IA [Reference Example 9] | 1 |
| 5γ-deoxy-(3-dimethylaminopropyl)-5γ-amino-pristinamycin IA [product A] | 10 |
| 5δ-(1-methyl-4-piperidyl)aminomethylenepristinamycin IA [product AT] | 10 |
| 5δ-(2-diethylaminoethyl)thiomethylpristinamycin IA [product AF1] | 5 |
| 5δ-(2-dimethylaminoethyl)thiomethylenepristinamycin IA [product AX] | 1 |
| 5δ-(3-dimethylamino-2-propyl)thiomethylenepristinamycin IA [Reference Example 57] | 5 |
| 5δ-(3-dimethylaminopropyl)thiomethylpristinamycin IA [product AA] | 10 |
| 5δ-(5-diethylamino-2-pentyl)thiomethylenepristinamycin IA [Reference Example 58] | 10 |
| 5δ-[2-(4-methyl-1-piperazinyl)ethyl]thiomethylpristinamycin IA [product AC] | 5 |
| 26-(2-Diisopropylaminoethyl)sulphonylpristinamycin IIB [Example 25] | 5 |
| CC1=CC(O)CC(=O)Cc2nc(co2)C(=O)N2CCC([S+]([O-])CCN(C)C)C2C(=O)OC(C(C)C)C(C)C=CC(=O)NCC=C1 (centres unmarked) [Example 4, 26-(2-dimethylaminoethyl)sulphinylpristinamycin IIB] | 3.7 |
| CCN(C)CC[S+]([O-])C1CCN2C(=O)c3coc(n3)CC(=O)CC(O)C=C(C)C=CCNC(=O)C=CC(C)C(C(C)C)OC(=O)C12 (centres unmarked) [Example 5, 2-(N-methyl-N-ethyl-2-aminoethyl)sulphinylpristinamycin IIB] | 10 |
| CC1=CC(O)CC(=O)Cc2nc(co2)C(=O)N2CCC([S+]([O-])CCCN(C)C)C2C(=O)OC(C(C)C)C(C)C=CC(=O)NCC=C1 (centres unmarked) [Example 6, 26-(3-dimethylaminopropyl)sulphinylpristinamycin IIB] | 2 |
| CC1=CC(O)CC(=O)Cc2nc(co2)C(=O)N2CCC([S+]([O-])CC(Cc3ccccc3)N(C)C)C2C(=O)OC(C(C)C)C(C)C=CC(=O)NCC=C1 [Example 11, 26-[(2S)-2-dimethylamino-3-phenylpropyl]sulphinylpristinamycin IIB] | 1 |
| CCCCCCCCCCNCC[S+]([O-])C1CCN2C(=O)c3coc(n3)CC(=O)CC(O)C=C(C)C=CCNC(=O)C=CC(C)C(C(C)C)OC(=O)C12 (centres unmarked) [Example 18, 26-(2-decylaminoethyl)sulphinylpristinamycin IIB] | 1 |
| CCC1NC(=O)C(NC(=O)c2ncccc2O)C(C)OC(=O)C(c2ccccc2)NC(=O)C2CC(=O)C(=CSC(C)CN3CCN(C)CC3)CN2C(=O)C(Cc2ccc(N(C)C)cc2)N(C)C(=O)C2CCCN2C1=O (centres unmarked) [product AAN, 5δ-[3-(4-methyl-1-piperazinyl)-2-propyl]thiomethylenepristinamycin IA] ({Picolinoyl(3-OH)}-T[Abu]P[ξNMePhe(4-NMe2)][X6][Phg]; ester 1-C; configuration not given here) | 10 |
| CCC1NC(=O)C(NC(=O)c2ncccc2O)C(C)OC(=O)C(c2ccccc2)NC(=O)C2CC(=O)C(=COCCN(C)C)CN2C(=O)C(Cc2ccc(N(C)C)cc2)N(C)C(=O)C2CCCN2C1=O (centres unmarked) [product AAQ, 5δ-(2-dimethylaminoethoxymethylene)pristinamycin IA] ({Picolinoyl(3-OH)}-T[Abu]P[ξNMePhe(4-NMe2)][X1][Phg]; ester 1-C; configuration not given here) | 1 |
| CCC1NC(=O)C(NC(=O)c2ncccc2O)C(C)OC(=O)C(c2ccccc2)NC(=O)C2CC(=O)C(CSCCCN(C)C)CN2C(=O)C(Cc2ccccc2)N(C)C(=O)C2CCCN2C1=O (centres unmarked) [product AB, 5δ-(3-dimethylaminopropyl)thiomethylvirginiamycin S] ({Picolinoyl(3-OH)}-T[Abu]P[NMeF][X7][Phg]; ester 1-C; configuration not given here) | 10 |
| CCC1NC(=O)C(NC(=O)c2ncccc2O)C(C)OC(=O)C(c2ccccc2)NC(=O)C2CC(=O)C(CSCCCN3CCN(C)CC3)CN2C(=O)C(Cc2ccc(N(C)C)cc2)N(C)C(=O)C2CCCN2C1=O (centres unmarked) [product AD, 5δ-[3-(4-methyl-1-piperazinyl)propyl]thiomethylpristinamycin IA] ({Picolinoyl(3-OH)}-T[Abu]P[ξNMePhe(4-NMe2)][X5][Phg]; ester 1-C; configuration not given here) | 10 |
| CCC1NC(=O)C(NC(=O)c2ncccc2O)C(C)OC(=O)C(c2ccccc2)NC(=O)C2CC(=O)C(CSC(CN(C)C)CN(C)C)CN2C(=O)C(Cc2ccc(N(C)C)cc2)N(C)C(=O)C2CCCN2C1=O (centres unmarked) [product AE, 5δ-[1,3-bis(dimethylamino)-2-propyl]thiomethylpristinamycin IA] ({Picolinoyl(3-OH)}-T[Abu]P[ξNMePhe(4-NMe2)][X4][Phg]; ester 1-C; configuration not given here) | 7.5 |
| CCC1NC(=O)C(NC(=O)c2ncccc2O)C(C)OC(=O)C(c2ccccc2)NC(=O)C2CC(=O)C(CSC3CCN(C)CC3)CN2C(=O)C(Cc2ccc(N(C)C)cc2)N(C)C(=O)C2CCCN2C1=O (centres unmarked) [product AF, 5δ-(1-methyl-4-piperidyl)thiomethylpristinamycin IA] ({Picolinoyl(3-OH)}-T[Abu]P[ξNMePhe(4-NMe2)][X2][Phg]; ester 1-C; configuration not given here) | 5 |
